# Paper PMC9045377, “CpxA Phosphatase Inhibitor Activates CpxRA and Is a Potential Treatment for Uropathogenic Escherichia coli in a Murine Model of Infection” (Microbiology Spectrum, 2022)
# Tests used:
# [1] = system: HepG2 cells; test: Cytotoxicity by LDH release in HepG2 cells; type: cell-based; details: 0 to 160 μM
# Procedure: E. coli strain CFT073 and its derivative CFT073ΔcpxA::cat were described previously and maintained on Luria broth (LB) plates at 37°C ([30]). The E. coli PcpxP′-lacZ reporter strain, PAD282, was the gift of Thomas Silhavy (Princeton University, Princeton, NJ, USA) and was maintained on TB plates at 37°C ([31]). HepG2 hepatocellular carcinoma cells were the gift of Andy Yu (Indiana University, Indianapolis, IN) and were grown in RPMI […] medium (Gibco) containing 10% fetal calf serum (HyClone) and 1 mM sodium pyruvate (Sigma) at 37°C with 5% CO2 as described ([31]).
# The cytotoxicity of compound 6 for HepG2 cells was determined by LDH release after incubation with the compound in concentrations ranging from 0 to 160 μM for 5 h and 24 h exactly as described ([31]). The IC50 was determined from quadruplicate experiments by the GraphPad Prism 6 software using a nonlinear fit model.
# [2] = system: UPEC strain CFT073; type: in vivo, Escherichia coli (in female CBA/J mice); details: compound 6 trial
# Procedure: Four groups of eight female CBA/J mice were transurethrally inoculated with a target dose of ∼10^8 CFU of either CFT073 or CFT073ΔcpxA::cat. One group was treated with ciprofloxacin (2.5 mg/kg/dose dissolved in sterile distilled water) s.c. 12, 24, 36, 48, and 60 h after inoculation with CFT073 as described ([31]). The untreated CFT073 and CFT073ΔcpxA::cat inoculated groups were given the vehicle control s.c. at 12, 24, 36, 48, and 60 h after inoculation. The compound 6 treated group were given the drug (100 mg/kg) s.c. at 12, 36, and 60 h after inoculation with CFT073 and received the vehicle control s.c. at 24 and 48 h. The animals were sacrificed 4 h after the last treatment (64 h postinoculation) and CFU per milliliter or CFU per gram of tissue was determined in the urine, bladder, and kidneys.
# Animal experiments were conducted according to the guidelines of the University of Michigan Institutional Animal Care and Use Committee. For the animal infection experiments, bacterial strains were cultured at 37°C in LB medium overnight with shaking ([30]). Female CBA/J mice (Jackson Laboratories, Bar Harbor, ME) were inoculated transurethrally with a target dose of ∼10^8 CFU of CFT073 or CFT073ΔcpxA::cat. Mice were subsequently treated 12 h later either with the vehicle, ciprofloxacin hydrochloride (PanReac AppliChem ITW Reagents; Jade Scientific), compound 1, compound 6, or compound 26 as described in Results and euthanized 4 h after the last treatment. Bacterial loads of each strain were calculated from the urine, bladder, and kidneys of mice as previously described; the limits of detection for these assays were 100 CFU/mL or 100 CFU/g of urine and tissue, respectively ([33]). Values of 50 CFU/mL or 50 CFU/g were assigned to specimens whose yields were below the limit of detection.
# Due to the extreme skewness of the data, natural log transformation was used before the data were analyzed statistically. Descriptive statistics were calculated for all of the log-transformed variables. Statistical comparisons were done using analysis of variance (ANOVA) with follow-up pairwise tests adjusted for multiple comparisons using the Tukey procedure.
# [3] = system: UPEC strain CFT073; type: in vivo, Escherichia coli (in female CBA/J mice); details: compound 26 trial
Structure (SMILES),"IC50, LDH release ([1]; 5 h incubation)","IC50 ([1]; Homo sapiens, 24 h incubation) [µM]","CFU of CFT073 recovered in urine vs CFT073-inoculated vehicle control ([2]; 8 mice/group, compound 6 100 mg/kg s.c. at 12, 36, 60 h, ciprofloxacin 2.5 mg/kg/dose s.c. at 12, 24, 36, 48, 60 h, sacrifice 64 h)",CFU of CFT073 recovered in bladder vs CFT073-inoculated vehicle control ([2]; same regimens),CFU of CFT073 recovered in kidneys vs CFT073-inoculated vehicle control ([2]; same regimens),recoverable CFU in bladder vs vehicle-treated mice inoculated with CFT073ΔcpxA::cat [3],recoverable CFU in kidneys vs vehicle-treated mice inoculated with CFT073ΔcpxA::cat [3],recoverable CFU in urine vs vehicle-treated mice inoculated with CFT073ΔcpxA::cat [3],"recoverable CFU in urine vs CFT073-inoculated vehicle-treated controls ([3]; 8 mice/group, compound 26 100 mg/kg s.c. at 12, 36, 60 h, ciprofloxacin 2.5 mg/kg/dose s.c. at 12, 24, 36, 48, 60 h, sacrifice 64 h)",recoverable CFU in bladder vs CFT073-inoculated vehicle-treated controls ([3]; same regimens),recoverable CFU in kidneys vs CFT073-inoculated vehicle-treated controls ([3]; same regimens),"recoverable CFU in urine, bladder and kidneys vs ciprofloxacin-treated group ([3]; all P > 0.9)"
NC1CCCc2c1[nH]c1ccc(F)cc21 (stereo not drawn) [compound 6],could not be calculated,> 33,no effect,no effect,no effect,,,,,,,
N[C@@H]1CCCc2c1[nH]c1cc(F)c(F)cc21 [compound 26],,,,,,significantly lower,significantly lower,trended toward having a lower CFU,significantly lowered,trended toward lowering,trended toward lowering,no significant differences
